No end group written: not given here. HA = not defined here
Key:
endogenous CARP-1 = assay: Anti-EGFP co-immunoprecipitation with endogenous CARP-1; format: cell-based, human; details: MDA-MB-468 stable subline, anti-EGFP IP, anti-CARP-1 (α2) WB; Figure 5D
Description: Logarithmically growing cells were either untreated or treated with different agents for various time periods. The cells were lysed to prepare protein extracts. IP was carried out by incubating approximately 1 mg of the protein lysate with appropriate antibodies. The immunoprecipitates were then analyzed by SDS-PAGE, followed by WB with respective, interacting protein. For Gst-pulldown, Gst-H2AX or various His-TAT-HA-tagged CARP-1 peptides were generated in Escherichia coli (E. coli) BL21 cells essentially as described by us previously. Briefly, the competent E. coli BL-21 (DE3) pLysS cells were transformed separately with various recombinant pGEX-4T-1 or pTAT-HA constructs. The transformed cells were then subjected to selection by combined presence of ampicillin and chloramphenicol; various isolates for each transformation were obtained and bacterial lysates were characterized for expression of fusion peptides. Cells from each isolate were grown in 4 mL of LB medium containing ampicillin only until the optical density (OD)600 reached 0.4–0.8. Expression of fusion peptides was induced over 2–4 h incubation periods after Isopropyl β-D-1-thiogalactopyranoside (IPTG) addition. […]
Figure 5 Fine Mapping of H2AX/CARP-1 interacting epitopes. […] Following stringent washing, the bound proteins were analyzed with WB using anti-HA (upper) or anti-Gst (middle) antibodies. […]

MDA-MB-468 cells = assay: Transduction/localization of TAT-tagged proteins, MDA-MB-468; format: cell-based, human; details: MDA-MB-468, 300 μg/mL, confocal
Description: Cells were plated onto chamber slides one day before treatment. Following treatment of cells with respective compounds, the adherent cells were fixed with 5% formaldehyde for 10 min and then washed with phosphate buffered saline (PBS). Samples were blocked (0.5% NP-40, 5% milk powder, 1% fetal bovine serum) for 30 min. After a single wash with PBS, cells were incubated with primary antibodies for 45 to 60 min. Coverslips were washed with PBS and then incubated with secondary antibodies for another 45 to 60 min. They were then washed with PBS and mounted with 0.1 μg/mL 4′,6′-diamidino-2-phenylindole (DAPI) containing mounting solution. […]
We further tested whether and the extent to which transient and ectopic expression of CARP-1 (636–650) peptide would also interfere with the cell-growth inhibition by Adriamycin. […] The wild-type MDA-MB-468 or HeLa cells were pre-incubated with His-TAT-HA-EGFP or His-TAT-HA-CARP-1 (636–650) proteins, and presence of GFP and CARP-1 (636–650) was determined by immuno-cytochemical staining followed by photography using a confocal microscope as above. […]
Figure S9. […] Multiple cells from each of the confocal images in the γH2AX column of Figure 8C were subjected to quantitation for levels of γH2AX. The quantitation of the images of stained cells was carried out by using ImageJ software (imagej.nih.gov/ij/plugins/track/jacop2). […]

Substance	in-cell interaction with endogenous CARP-1 (endogenous CARP-1)	cellular localization after transduction (MDA-MB-468 cells)
EGFP-H2AX (1–35): EGFP-tagged fusion protein stably expressed in MDA-MB-468 and HeLa sublines (MSGRGKTGGKARAKAKSRSSRAGLQFPVGRVHRLL; also: EGFP fusion, end not given here; UniProt P16104 1-35, looked up, fragment)	robust, in vivo interaction	
His-TAT-HA-CARP-1 (636–650): His-TAT-HA-tagged CARP-1 (636–650) peptide, >95% purity, commercially synthesized ({His-TAT-HA}-PKTMKVNDLRKELES; reading uncertain; UniProt Q8IX12 636-650, looked up, fragment)		predominantly present in the cytoplasmic region

— PMC6406907, “A H2AX–CARP-1 Interaction Regulates Apoptosis Signaling Following DNA Damage” (Cancers, 2019)
